# Measured values reported in patent publication US20230085307A1, “PYRIDAZINONE COMPOUND AND HERBICIDE” (NISSAN CHEMICAL CORPORATION, priority 2019, published 2023).
# How the values were obtained:
# southern crabgrass [1] = assay: Test Example 4: herbicidal effect by soil treatment (Table 19, symbol F); assay type: in vivo, southern crabgrass (Digitaria ciliaris); details: for herbicidal effect rating, F: southern crabgrass: 320 g/ha
# Summary of the method: (§1)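 Seeds were sown in sterilized diluvial soil and covered with about 1.5 cm of soil. An emulsion formulation diluted with water to a predetermined herbicide amount was sprayed evenly onto the soil surface. Plants grew in a greenhouse at 25° C. to 30° C., and the effect was scored three weeks after application using criteria from an earlier test.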
# barnyard grass = assay: Test Example 3: herbicidal effect by foliage application, Wagner pot (Table 18, symbol H); assay type: in vivo, barnyard grass (Echinochloa crus-galli); details: for herbicidal effect on H (barnyard grass), rating 0-5: 320 g/ha; for herbicidal effect on H: barnyard grass: amount of applied herbicide 320 g/ha
# Summary of the method: (§2)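 Plants were sown in alluvial soil held under 0.1–0.5 cm standing water and grown 14 days in a greenhouse at 25–30 °C. An emulsifiable formulation, water-diluted to the set dose, was then sprayed onto the foliage, and effects were scored three weeks later using previously defined criteria.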
# velvetleaf = assay: Test Example 4: herbicidal effect by soil treatment (Table 19, symbol M); assay type: in vivo, velvetleaf (Abutilon theophrasti); details: for herbicidal effect rating, M: velvetleaf: 320 g/ha
# Summary of the method: as §1
# late watergrass [2] = assay: Test Example 1: herbicidal activity, application before weed generation under submerged conditions (Table 16, symbol A); assay type: in vivo, late watergrass (Echinochloa oryzicola); details: 320 g/ha applied herbicide
# Summary of the method: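 Emulsion formulation, water-diluted to set dose, was put onto the flooded surface (4 cm depth, alluvial soil) the same day weeds were sown and 2.5-leaf rice transplanted. After 3 weeks at 25-30 °C under glass, each species was rated 0 (≤5% kill) to 5 (≥90% kill).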
# persian speedwell [3] = assay: Test Example 5: herbicidal effect by foliage application, plastic box (Table 20, symbol R); assay type: in vivo, Persian speedwell (Veronica persica); details: foliage application, evaluated three weeks after application; for herbicidal effect on R: persian speedwell: 320 g/ha; for R: persian speedwell, herbicidal effect (criteria 0-5): AAH 320 g/ha
# Summary of the method: (§3)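 Plants sown in sterilized diluvial soil and grown 14 days in a greenhouse at 25° C to 30° C, then sprayed on the foliage with the compound's emulsion diluted in water to a predetermined herbicide amount. Injury to weeds and crops scored three weeks after application on a visual rating scale.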
# Chinese sprangletop = assay: Test Example 3: herbicidal effect by foliage application, Wagner pot (Table 18, symbol D); assay type: in vivo, chinese sprangletop (Leptochloa chinensis); details: for herbicidal effect on D (Chinese sprangletop), rating 0-5: 320 g/ha; for herbicidal effect on D: Chinese sprangletop: amount of applied herbicide 320 g/ha
# Summary of the method: as §2
# blackgrass = assay: Test Example 4: herbicidal effect by soil treatment (Table 19, symbol J); assay type: in vivo, blackgrass (Alopecurus myosuroides); details: for herbicidal effect rating, J: blackgrass: 320 g/ha
# Summary of the method: as §1
# late watergrass [4] = assay: Test Example 2: herbicidal activity, application during weed generation under submerged conditions (Table 17, symbol A); assay type: in vivo, late watergrass (Echinochloa oryzicola); details: AAH 320 g/ha; application during weed generation, submerged conditions
# Summary of the method: (§4)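 3-wk visual-criteria score after one water-surface dose. Emulsion formulation, water-diluted to set rate; applied at 1–2 leaf stage; alluvial soil, 4 cm standing water; seeds co-sown; greenhouse 25–30° C.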
# persian speedwell [5] = assay: Test Example 4: herbicidal effect by soil treatment (Table 19, symbol R); assay type: in vivo, Persian speedwell (Veronica persica); details: for herbicidal effect rating, R: persian speedwell: 320 g/ha
# Summary of the method: as §1
# Italian ryegrass [6] = assay: Test Example 5: herbicidal effect by foliage application, plastic box (Table 20, symbol K); assay type: in vivo, Italian ryegrass (Lolium multiflorum); details: foliage application, evaluated three weeks after application; for herbicidal effect on K: Italian ryegrass: 320 g/ha; for K: Italian ryegrass, herbicidal effect (criteria 0-5): AAH 320 g/ha
# Summary of the method: as §3
# windgrass [7] = assay: Test Example 4: herbicidal effect by soil treatment (Table 19, symbol L); assay type: in vivo, windgrass (Apera spica-venti); details: for herbicidal effect rating, L: windgrass: 320 g/ha
# Summary of the method: as §1
# lambsquarters [8] = assay: Test Example 4: herbicidal effect by soil treatment (Table 19, symbol O); assay type: in vivo, lambsquarters (Chenopodium album)
# Summary of the method: as §1
# windgrass [9] = assay: Test Example 5: herbicidal effect by foliage application, plastic box (Table 20, symbol L); assay type: in vivo, windgrass (Apera spica-venti); details: foliage application, evaluated three weeks after application; for herbicidal effect on L: windgrass: 320 g/ha; for L: windgrass, herbicidal effect (criteria 0-5): AAH 320 g/ha
# Summary of the method: as §3
# lambsquarters [10] = assay: Test Example 5: herbicidal effect by foliage application, plastic box (Table 20, symbol O); assay type: in vivo, lambsquarters (Chenopodium album); details: foliage application, evaluated three weeks after application; for herbicidal effect on O: lambsquarters: 320 g/ha; for O: lambsquarters, herbicidal effect (criteria 0-5): AAH 320 g/ha
# Summary of the method: as §3
# Japanese bulrush = assay: Test Example 2: herbicidal activity, application during weed generation under submerged conditions (Table 17, symbol B); assay type: in vivo, Japanese bulrush (Schoenoplectus juncoides); details: AAH 320 g/ha; application during weed generation, submerged conditions
# Summary of the method: as §4
# Italian ryegrass [11] = assay: Test Example 4: herbicidal effect by soil treatment (Table 19, symbol K); assay type: in vivo, Italian ryegrass (Lolium multiflorum); details: for herbicidal effect rating, K: Italian ryegrass: 320 g/ha
# Summary of the method: as §1
# southern crabgrass [12] = assay: Test Example 5: herbicidal effect by foliage application, plastic box (Table 20, symbol F); assay type: in vivo, southern crabgrass (Digitaria ciliaris); details: foliage application, evaluated three weeks after application; for herbicidal effect on F: southern crabgrass: 320 g/ha; for F: southern crabgrass, herbicidal effect (criteria 0-5): AAH 320 g/ha
# Summary of the method: as §3
# [13] = amount of applied herbicide 320 g/ha
Structure (SMILES),"herbicidal effect rating, F: southern crabgrass (southern crabgrass [1])","herbicidal effect on H (barnyard grass), rating 0-5 (barnyard grass)","herbicidal effect rating, M: velvetleaf (velvetleaf)",Herbicidal effect on A: late watergrass (grade 0-5) (late watergrass [2]),herbicidal effect on R: persian speedwell (persian speedwell [3]),"herbicidal effect on D (Chinese sprangletop), rating 0-5 (Chinese sprangletop)","herbicidal effect rating, J: blackgrass (blackgrass)","herbicidal effect rating, A: late watergrass (late watergrass [4])","herbicidal effect rating, R: persian speedwell (persian speedwell [5])",herbicidal effect on K: Italian ryegrass (Italian ryegrass [6]),"herbicidal effect rating, L: windgrass (windgrass [7])",herbicidal effect on L: windgrass (windgrass [9]),herbicidal effect on O: lambsquarters (lambsquarters [10]),"herbicidal effect rating, B: Japanese bulrush (Japanese bulrush)","herbicidal effect rating, K: Italian ryegrass (Italian ryegrass [11])",herbicidal effect on F: southern crabgrass (southern crabgrass [12]),herbicidal effect on F: southern crabgrass (southern crabgrass [1]; [13]),herbicidal effect on H: barnyard grass (barnyard grass),herbicidal effect on M: velvetleaf (velvetleaf; [13]),"R: persian speedwell, herbicidal effect (criteria 0-5) (persian speedwell [3])",also measured
Cc1nn(C)c(=O)c(-c2c(-c3ccc(OCc4ccccc4)cc3)sc3ccc(F)cc23)c1O [2-062],1 (Herbicidal rate of 5% or more and less than 20%),5 (Herbicidal rate of 90% or more (almost completely withered)),1 (Herbicidal rate of 5% or more and less than 20%),4 (Herbicidal rate of 70% or more and less than 90%),5 (Herbicidal rate of 90% or more (almost completely withered)),5 (Herbicidal rate of 90% or more (almost completely withered)),0 (Herbicidal rate of 5% or less (almost no effect)),0 (Herbicidal rate of 5% or less (almost no effect)),3 (Herbicidal rate of 40% or more and less than 70%),1 (Herbicidal rate of 5% or more and less than 20%),0 (Herbicidal rate of 5% or less (almost no effect)),4 (Herbicidal rate of 70% or more and less than 90%),5 (Herbicidal rate of 90% or more (almost completely withered)),3 (Herbicidal rate of 40% or more and less than 70%),0 (Herbicidal rate of 5% or less (almost no effect)),3 (Herbicidal rate of 40% or more and less than 70%),,,,,"herbicidal effect rating, O: lambsquarters (lambsquarters [8]; 320 g/ha): 3 (Herbicidal rate of 40% or more and less than 70%)"
CCCC(=O)Oc1c(C)nn(C)c(=O)c1-c1c(-c2ccc(Cl)cc2)sc2ccc(Cl)cc12 [2-100],,5 (Herbicidal rate of 90% or more (almost completely withered)),,3 (Herbicidal rate of 40% or more and less than 70%),5 (Herbicidal rate of 90% or more (almost completely withered)),4 (Herbicidal rate of 70% or more and less than 90%),,3 (Herbicidal rate of 40% or more and less than 70%),,5 (Herbicidal rate of 90% or more (almost completely withered)),,5 (Herbicidal rate of 90% or more (almost completely withered)),4 (Herbicidal rate of 70% or more and less than 90%),0 (Herbicidal rate of 5% or less (almost no effect)),,4 (Herbicidal rate of 70% or more and less than 90%),,,,,"F: southern crabgrass, herbicidal effect rating (southern crabgrass [1]; [13]): 0 (Herbicidal rate of 5% or less (almost no effect)); M: velvetleaf, herbicidal effect rating (velvetleaf; [13]): 0 (Herbicidal rate of 5% or less (almost no effect)); J: blackgrass, herbicidal effect rating (blackgrass; [13]): 0 (Herbicidal rate of 5% or less (almost no effect)); R: persian speedwell, herbicidal effect rating (persian speedwell [5]; [13]): 1 (Herbicidal rate of 5% or more and less than 20%); L: windgrass, herbicidal effect rating (windgrass [7]; [13]): 3 (Herbicidal rate of 40% or more and less than 70%); O: lambsquarters, herbicidal effect rating (lambsquarters [8]; [13]): 2 (Herbicidal rate of 20% or more and less than 40%); K: Italian ryegrass, herbicidal effect rating (Italian ryegrass [11]; [13]): 3 (Herbicidal rate of 40% or more and less than 70%)"
CCCC(=O)Oc1c(C)nn(C)c(=O)c1-c1c(-c2ccc(SC3CC3)cc2)sc2ccc(F)cc12 [2-255],,,,5 (Herbicidal rate of 90% or more (almost completely withered)),,,,4 (Herbicidal rate of 70% or more and less than 90%),,,,,,3 (Herbicidal rate of 40% or more and less than 70%),,,0 (Herbicidal rate of 5% or less (almost no effect)),5 (Herbicidal rate of 90% or more (almost completely withered)),3 (Herbicidal rate of 40% or more and less than 70%),5 (Herbicidal rate of 90% or more (almost completely withered)),"herbicidal effect on D: Chinese sprangletop (Chinese sprangletop): 4 (Herbicidal rate of 70% or more and less than 90%); herbicidal effect on J: blackgrass (blackgrass; [13]): 1 (Herbicidal rate of 5% or more and less than 20%); herbicidal effect on R: persian speedwell (persian speedwell [5]; [13]): 5 (Herbicidal rate of 90% or more (almost completely withered)); K: Italian ryegrass, herbicidal effect (criteria 0-5) (Italian ryegrass [6]): 5 (Herbicidal rate of 90% or more (almost completely withered)); herbicidal effect on L: windgrass (windgrass [7]; [13]): 3 (Herbicidal rate of 40% or more and less than 70%); herbicidal effect on O: lambsquarters (lambsquarters [8]; [13]): 3 (Herbicidal rate of 40% or more and less than 70%); L: windgrass, herbicidal effect (criteria 0-5) (windgrass [9]): 5 (Herbicidal rate of 90% or more (almost completely withered)); O: lambsquarters, herbicidal effect (criteria 0-5) (lambsquarters [10]): 4 (Herbicidal rate of 70% or more and less than 90%); herbicidal effect on K: Italian ryegrass (Italian ryegrass [11]; [13]): 3 (Herbicidal rate of 40% or more and less than 70%); F: southern crabgrass, herbicidal effect (criteria 0-5) (southern crabgrass [12]): 5 (Herbicidal rate of 90% or more (almost completely withered))"
C#CCOc1ccc(-c2sc3ccc(F)cc3c2-c2c(OCOCCOC)c(C)nn(C)c2=O)cc1 [2-055],1 (Herbicidal rate of 5% or more and less than 20%),5 (Herbicidal rate of 90% or more (almost completely withered)),3 (Herbicidal rate of 40% or more and less than 70%),0 (Herbicidal rate of 5% or less (almost no effect)),5 (Herbicidal rate of 90% or more (almost completely withered)),5 (Herbicidal rate of 90% or more (almost completely withered)),0 (Herbicidal rate of 5% or less (almost no effect)),0 (Herbicidal rate of 5% or less (almost no effect)),5 (Herbicidal rate of 90% or more (almost completely withered)),3 (Herbicidal rate of 40% or more and less than 70%),0 (Herbicidal rate of 5% or less (almost no effect)),0 (Herbicidal rate of 5% or less (almost no effect)),5 (Herbicidal rate of 90% or more (almost completely withered)),3 (Herbicidal rate of 40% or more and less than 70%),0 (Herbicidal rate of 5% or less (almost no effect)),1 (Herbicidal rate of 5% or more and less than 20%),,,,,
C=CCOC(=O)Oc1c(C)nn(C)c(=O)c1-c1c(-c2ccc(OC(F)F)cc2)sc2ccc(F)cc12 [2-294],,,,5 (Herbicidal rate of 90% or more (almost completely withered)),,,,3 (Herbicidal rate of 40% or more and less than 70%),,,,,,3 (Herbicidal rate of 40% or more and less than 70%),,,5 (Herbicidal rate of 90% or more (almost completely withered)),5 (Herbicidal rate of 90% or more (almost completely withered)),5 (Herbicidal rate of 90% or more (almost completely withered)),5 (Herbicidal rate of 90% or more (almost completely withered)),"herbicidal effect on D: Chinese sprangletop (Chinese sprangletop): 4 (Herbicidal rate of 70% or more and less than 90%); herbicidal effect on R: persian speedwell (persian speedwell [5]; [13]): 5 (Herbicidal rate of 90% or more (almost completely withered)); K: Italian ryegrass, herbicidal effect (criteria 0-5) (Italian ryegrass [6]): 5 (Herbicidal rate of 90% or more (almost completely withered)); herbicidal effect on L: windgrass (windgrass [7]; [13]): 4 (Herbicidal rate of 70% or more and less than 90%); herbicidal effect on O: lambsquarters (lambsquarters [8]; [13]): 5 (Herbicidal rate of 90% or more (almost completely withered)); L: windgrass, herbicidal effect (criteria 0-5) (windgrass [9]): 3 (Herbicidal rate of 40% or more and less than 70%); O: lambsquarters, herbicidal effect (criteria 0-5) (lambsquarters [10]): 5 (Herbicidal rate of 90% or more (almost completely withered)); herbicidal effect on K: Italian ryegrass (Italian ryegrass [11]; [13]): 5 (Herbicidal rate of 90% or more (almost completely withered)); F: southern crabgrass, herbicidal effect (criteria 0-5) (southern crabgrass [12]): 5 (Herbicidal rate of 90% or more (almost completely withered))"
